Results: patent US20190255086A1, “Compositions and Methods for Treating an Infection” (CMPD Licensing, LLC, priority 2015, published 2019)

Legend:
Bacteroides fragilis = experiment: Expected efficacy of anti-bacterial agents against various bacteria (Tables 5 and 6); conditions: Gram: anaer
Clostridium difficile = experiment: as above; conditions: Gram: anaer
Clostridium perfringens = conditions: expected efficacy; Clostridium perfringens; Gram: anaer
Chlamydia pneumoniae = experiment: Expected efficacy of anti-bacterial agents against various bacteria (Tables 5 and 6); conditions: Gram: n/a
Chlamydia psittaci = conditions: expected efficacy; Chlamydia psittaci; Gram: n/a
Chlamydia trachomatis = experiment: Expected efficacy of anti-bacterial agents against various bacteria (Tables 5 and 6); conditions: Gram: n/a
Mycoplasma pneumoniae = experiment: as above; conditions: Gram: n/a
Acinetobacter baumannii = experiment: as above; conditions: Gram: neg
[1] = test system: Acinetobacter calcoaceticus; experiment: as above; conditions: Gram: neg
Acinetobacter lwoffii = experiment: as above; conditions: Gram: neg
Bordetella pertussis = experiment: as above; conditions: Gram: neg
Campylobacter jejuni = experiment: as above; conditions: Gram: neg
Citrobacter diversus = experiment: as above; conditions: Gram: neg
Citrobacter freundii = experiment: as above; conditions: Gram: neg
Enterobacter aerogenes = experiment: as above; conditions: Gram: neg
Enterobacter cloacae = experiment: as above; conditions: Gram: neg
Enterobacter sakazakii = experiment: as above; conditions: Gram: neg
Escherichia coli = experiment: as above; conditions: Gram: neg
Haemophilus ducreyi = experiment: as above; conditions: Gram: neg
Haemophilus influenzae = experiment: as above; conditions: Gram: neg
[2] = test system: Klebsiella (Calymmatobacterium) granulomatis; experiment: as above; conditions: Gram: neg
Klebsiella oxytoca = experiment: as above; conditions: Gram: neg
Klebsiella pneumoniae = experiment: as above; conditions: Gram: neg
Legionella pneumophila = conditions: expected efficacy; Legionella pneumophila; Gram: neg
Moraxella catarrhalis = experiment: Expected efficacy of anti-bacterial agents against various bacteria (Tables 5 and 6); conditions: Gram: neg
Neisseria gonorrhoeae = experiment: as above; conditions: Gram: neg
Neisseria meningitidis = experiment: as above; conditions: Gram: neg
Proteus mirabilis = experiment: as above; conditions: Gram: neg
Proteus vulgaris = experiment: as above; conditions: Gram: neg
Pseudomonas aeruginosa = experiment: as above; conditions: Gram: neg
Pseudomonas fluorescens = experiment: as above; conditions: Gram: neg
Serratia marcescens = experiment: as above; conditions: Gram: neg
Shigella boydii = experiment: as above; conditions: Gram: neg
Shigella dysenteriae = experiment: as above; conditions: Gram: neg
Shigella flexneri = experiment: as above; conditions: Gram: neg
Shigella sonnei = experiment: as above; conditions: Gram: neg
Vibrio cholerae = experiment: as above; conditions: Gram: neg
Yersinia pestis = conditions: expected efficacy; Yersinia pestis; Gram: neg
Corynebacterium jeikeium = experiment: Expected efficacy of anti-bacterial agents against various bacteria (Tables 5 and 6); conditions: Gram: pos
[3] = test system: Corynebacterium urealyticum; experiment: as above; conditions: Gram: pos
Diphtheroids = experiment: as above; conditions: Gram: pos
Enterococcus faecalis = experiment: as above; conditions: Gram: pos
Enterococcus faecium = experiment: as above; conditions: Gram: pos
[4] = test system: Methicillin resistant staph aureus (MRSA); experiment: as above; conditions: Gram: pos
Peptostreptococcus = experiment: as above; conditions: Gram: pos
[5] = test system: Staphylococcus aureus (MSSA); experiment: as above; conditions: Gram: pos
[6] = test system: Staphylococcus epidermidis; experiment: as above; conditions: Gram: pos
Streptococcus agalactiae = experiment: as above; conditions: Gram: pos
Streptococcus pneumoniae = experiment: as above; conditions: Gram: pos
Streptococcus pyogenes = experiment: as above; conditions: Gram: pos
[7] = test system: Viridans group streptococci; experiment: as above; conditions: Gram: pos

With `NC[C@H]1O[C@H](O[C@H]2[C@H](O)[C@@H](O[C@H]3O[C@H](CO)[C@@H](O)[C@H](N)[C@H]3O)[C@H](N)C[C@@H]2N)[C@H](N)C[C@@H]1O` [Tobramycin] the “Efficacy of various antibiotic agents” value (Bacteroides fragilis) was “no”, the “Efficacy of various antibiotic agents” value (Clostridium difficile) was “no” and the “Efficacy of various antibiotic agents” value (Clostridium perfringens) was “no”. For the same compound, the “Efficacy of various antibiotic agents” value (Chlamydia pneumoniae) was “no”, the “Efficacy of various antibiotic agents” value (Chlamydia psittaci) was “no” and the “Efficacy of various antibiotic agents” value (Chlamydia trachomatis) was “no”. For the same compound, the “Efficacy of various antibiotic agents” value (Mycoplasma pneumoniae) was “no”, the “Efficacy of various antibiotic agents” value (Acinetobacter baumannii) was “no” and the “Efficacy of various antibiotic agents” value [1] was “no”. For the same compound, the “Efficacy of various antibiotic agents” value (Acinetobacter lwoffii) was “no”, the “Efficacy of various antibiotic agents” value (Bordetella pertussis) was “no” and the “Efficacy of various antibiotic agents” value (Campylobacter jejuni) was “yes”. The “Efficacy of various antibiotic agents” value (Citrobacter diversus) was “yes”, the “Efficacy of various antibiotic agents” value (Citrobacter freundii) was “yes” and the “Efficacy of various antibiotic agents” value (Enterobacter aerogenes) was “yes”. For the same compound, the “Efficacy of various antibiotic agents” value (Enterobacter cloacae) was “yes”, the “Efficacy of various antibiotic agents” value (Enterobacter sakazakii) was “yes” and the “Efficacy of various antibiotic agents” value (Escherichia coli) was “yes”. For the same compound, the “Efficacy of various antibiotic agents” value (Haemophilus ducreyi) was “yes”, the “Efficacy of various antibiotic agents” value (Haemophilus influenzae) was “yes” and the “Efficacy of various antibiotic agents” value [2] was “yes”. For the same compound, the “Efficacy of various antibiotic agents” value (Klebsiella oxytoca) was “yes”, the “Efficacy of various antibiotic agents” value (Klebsiella pneumoniae) was “yes” and the “Efficacy of various antibiotic agents” value (Legionella pneumophila) was “no”. The “Efficacy of various antibiotic agents” value (Moraxella catarrhalis) was “yes”, the “Efficacy of various antibiotic agents” value (Neisseria gonorrhoeae) was “no” and the “Efficacy of various antibiotic agents” value (Neisseria meningitidis) was “no”. For the same compound, the “Efficacy of various antibiotic agents” value (Proteus mirabilis) was “yes”, the “Efficacy of various antibiotic agents” value (Proteus vulgaris) was “yes” and the “Efficacy of various antibiotic agents” value (Pseudomonas aeruginosa) was “yes”. The “Efficacy of various antibiotic agents” value (Pseudomonas fluorescens) was “yes”, the “Efficacy of various antibiotic agents” value (Serratia marcescens) was “yes” and the “Efficacy of various antibiotic agents” value (Shigella boydii) was “yes”. The “Efficacy of various antibiotic agents” value (Shigella dysenteriae) was “yes”, the “Efficacy of various antibiotic agents” value (Shigella flexneri) was “yes” and the “Efficacy of various antibiotic agents” value (Shigella sonnei) was “yes”. For the same compound, the “Efficacy of various antibiotic agents” value (Vibrio cholerae) was “no”, the “Efficacy of various antibiotic agents” value (Yersinia pestis) was “yes” and the “Efficacy of various antibiotic agents” value (Corynebacterium jeikeium) was “no”. For the same compound, the “Efficacy of various antibiotic agents” value [3] was “no”, the “Efficacy of various antibiotic agents” value (Diphtheroids) was “no” and the “Efficacy of various antibiotic agents” value (Enterococcus faecalis) was “no”. For the same compound, the “Efficacy of various antibiotic agents” value (Enterococcus faecium) was “no”, the “Efficacy of various antibiotic agents” value [4] was “no” and the “Efficacy of various antibiotic agents” value (Peptostreptococcus) was “no”. For the same compound, the “Efficacy of various antibiotic agents” value [5] was “no”, the “Efficacy of various antibiotic agents” value [6] was “no” and the “Efficacy of various antibiotic agents” value (Streptococcus agalactiae) was “no”. For the same compound, the “Efficacy of various antibiotic agents” value (Streptococcus pneumoniae) was “no”, the “Efficacy of various antibiotic agents” value (Streptococcus pyogenes) was “no” and the “Efficacy of various antibiotic agents” value [7] was “no”.
